# Molecular target: hKv1.5 (Homo sapiens, UniProt P22460)
# Test: Kv1.5 Autopatch Electrophysiology (whole cell patch-clamp)
# Format: cell-based
# Settings: compound at 1µM, room temperature (22-24°C), held at -80mV, step to 0mV for 1000ms, total charge measured
# Experimental: The external bathing solution contained (in mM): 150 NaCl, 10 KCl, […], 3 MgCl2, 1 CaCl2, 10 HEPES, pH 7.4. Patch pipettes were filled with an electrode solution of composition (in mM): 160 KCl, 0.5 MgCl2, 10 HEPES, 1 EGTA, pH 7.4 with KOH.
# Compounds were dissolved in DMSO (100 %) and made up in the external bather at a concentration of 1µM. All experiments were conducted at room temperature (22-24°C).
# A cell suspension (10 ml), with a density of 100,000 cells/ml, was aliquoted into a 15ml centrifuge tube and transferred to an incubator (37°C, 5% CO2) for approximately one hour before use. Following 60 min incubation, a tube was taken and centrifuged at 1000 rpm for 4 mins at room temperature. 9.5 ml supernatant was thence discarded, leaving a cell pellet at the bottom of the tube. The pellet was then resuspended using 100 µl of cold (4 °C), filtered (0.22 µm), 0.2 % BSA/bather solution (0.02g BSA/10ml bather). The bottom of the tube was manually agitated gently until the solution became cloudy with cells. The 100 µl cell resuspension solution was then stored on the bench at 4 °C (using a Peltier-based temperature control device) until used.
# A length of capillary glass (1B150F-4, WPI) was dipped into the cell suspension solution, such that - 3 cm column of fluid was taken up by capillary action. A Ag/AgCl wire was dropped into the non-dipped end of the capillary also. The outside of the solution-filled end of the capillary was then dried and the capillary was loaded into the AutoPatch™. Borosilicate glass patch pipettes (from 1.5mm OD, thin-walled filamented, GC150-TF capillary glass, Harvard) were pulled using a DMZ pipette puller (Zeitz Instruments), and were back-filled using the internal pipette solution, being careful that no bubbles remain at the tip or in the body of the pipette. Patch pipettes typically had resistances of 2.3-3.5 MΩ. Once filled, the pipette tip and a proportion of the shaft (- 15 mm) were dipped into Sigmacote (Sigma). The recording pipette was then loaded into the AutoPatch™.
# Automated patch-clamping was initiated by the operator, but thereafter AutoPatch.exe continued the experiment providing that pre-set conditions and criteria were satisfied.
# Whole cell patch-clamp recordings were made using the AutoPatch™ rig, which incorporated an EPC9 amplifier (HEKA, Germany) under control of Pulse software (v8.54, HEKA, Germany), a motion controller with 2 translators (Newport, UK), valve controller (VF1) and a c-level suction device all at room temperature (22-24°C). This equipment was completely under the control of AutoPatch.exe and operator intervention was only made when there was a requirement to refill the drug reservoirs or to prevent the loss of a cell due to a technical error. Cells with an Rseries greater than 18 MΩ were discounted from the experiment.
# Qualification stages prior to perfusion and drug application ensured that the observed current met the criteria for the experiment. Only those cells with an IK > 500 pA were used for experiments. Cells were continuously perfused with external solution at a flow rate of 1.8-2 ml/minute. […] Online analysis of the hKv1.5 current during the application of compounds was performed by the AutoPatch™ software. Voltage-step protocols and analysis of data was performed as described for conventional electrophysiology.
# Electrophysiology voltage-step protocols and analysis of data was performed as follows. Data was sampled at 5kHz, and filtered with a -3 dB bandwidth of 2.5kHz. Cells were held at a voltage of -80mV. Currents were evoked to a voltage step for 1000ms in duration at 0mV every 5s. Currents were analysed using Pulsefit software (v8.54, HEKA, Germany), with the total charge measured during the whole of the voltage step. All other plots were produced using Igor Pro (WaveMetrics).
# Sequence of hKv1.5 (P22460 whole entry): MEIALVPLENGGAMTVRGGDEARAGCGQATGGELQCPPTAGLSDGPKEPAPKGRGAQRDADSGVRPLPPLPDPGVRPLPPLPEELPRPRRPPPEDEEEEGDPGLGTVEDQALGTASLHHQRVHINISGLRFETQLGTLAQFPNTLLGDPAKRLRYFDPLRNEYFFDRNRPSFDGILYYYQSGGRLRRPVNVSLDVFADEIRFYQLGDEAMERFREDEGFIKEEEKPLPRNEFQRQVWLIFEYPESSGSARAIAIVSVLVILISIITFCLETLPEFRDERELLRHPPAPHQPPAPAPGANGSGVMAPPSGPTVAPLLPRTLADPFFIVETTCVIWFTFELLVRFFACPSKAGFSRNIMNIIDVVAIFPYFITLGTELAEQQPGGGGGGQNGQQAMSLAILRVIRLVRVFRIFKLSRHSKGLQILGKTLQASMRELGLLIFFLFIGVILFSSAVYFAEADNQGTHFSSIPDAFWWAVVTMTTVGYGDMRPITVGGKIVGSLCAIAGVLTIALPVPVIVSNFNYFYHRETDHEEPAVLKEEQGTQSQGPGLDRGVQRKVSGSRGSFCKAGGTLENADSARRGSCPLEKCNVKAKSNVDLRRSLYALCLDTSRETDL
Compound,inhibition at 1 µM [%],% Inhibition at 1µM [%]
"Cc1cccc(CNc2ncnc3sc(Br)c(-c4ccccc4)c23)n1 [Example 167, 6-bromo-N-[(6-methylpyridin-2-yl)methyl]-5-phenylthieno[2,3-d]pyrimidin-4-amine]",99,–
"CNC(=O)Cc1nc(NCc2ccccn2)c2c(-c3ccccc3)csc2n1 [Example 287, N-Methyl-2-{5-phenyl-4-[{pyridin-2-ylmethyl)amino]thieno[2,3-d]pyrimidin-2-yl}acetamide]",91,–
"CN(C)c1nc(NCc2ccccn2)c2c(-c3ccccc3)csc2n1 [Example 198, N^2,N^2-Dimethyl-5-phenyl-N^4-pyridin-2-ylmethyl-thieno[2,3-d]pyrimidine-2,4-diamine]",98.1,–
"Cc1cccc(CNc2ncnc3sc(C)c(-c4ccccc4)c23)n1 [Example 166, 6-methyl-N-[(6-methylpyridin-2-yl)methyl]-5-phenylthieno[2,3-d]pyrimidin-4-amine]",97,–
"CN(C)Cc1nc(NCc2ccccn2)c2c(-c3ccccc3)csc2n1 [Example 302, (2-Dimethylaminomethyl-5-phenylthieno[2,3-d]pyrimidin-4-yl)pyridin-2-ylmethylamine]",76,–
"Cc1cccnc1CNc1ncnc2scc(-c3ccccc3)c12 [Example 156, (3-methyl-pyridin-2-ylmethyl)-(5-phenyl-thieno[2,3-d]pyrimidin-4-yl)-amine]",92,–
"Nc1nc(NCc2ccccn2)c2c(-c3ccccc3)csc2n1 [Example 192, 5-Phenyl-N-4-pyridin-2-ylmethyl-thieno[2,3-d]pyrimidine-2,4-diamine]",90,–
"CN1CCN(c2nc(NCc3ccccn3)c3c(-c4ccccc4)csc3n2)CC1 [Example 215, [2-(4-Methyl-piperazin-1-yl)-5-phenyl-thieno[2,3-d]pyrimidin-4-yl]-pyridin-2-ylmethyl-amine]",82,–
"COc1ccc(-c2csc3ncnc(NCc4ccccn4)c23)cc1 [Example 138, [5-(4-Methoxy-phenyl)-thieno[2,3-d]pyrimidin-4-yl]-pyridin-2-ylmethyl-amine]",92.6,–
"CC(Nc1ncnc2scc(-c3ccccc3)c12)c1ccccn1 (centres unmarked) [Example 149, (5-Phenyl-thieno[2,3-d]pyrimidin-4-yl)-(1-pyridin-2-yl-ethyl)-amine]",78,–
"OCC(O)CNc1nc(NCc2ccccn2)c2c(-c3ccccc3)csc2n1 (centres unmarked) [Example 214, 3-{5-Phenyl-4-[(pyridin-2-ylmethyl)-amino]-thieno[2,3-d]pyrimidin-2-ylamino}-propane-1,2-diol]",87,–
"COCCNc1nc(NCc2ccccn2)c2c(-c3ccccc3)csc2n1 [Example 189, N^2-(2-Methoxyethyl)-5-phenyl-N^4-(pyridin-2-ylmethyl)thieno[2,3-d]pyrimidine-2,4-diamine]",97.4,–
"CCOC(=O)c1cccnc1CNc1ncnc2scc(-c3ccccc3)c12 [Example 160, 2-[(5-Phenyl-thieno[2,3-d]pyrimidin-4-ylamino)-methyl]-nicotinic acid ethyl ester]",80,–

# The remaining lines, values ahead:
inhibition at 1 µM [%],% Inhibition at 1µM [%],Compound
81,–,"Clc1ccc(-c2csc3ncnc(NCc4ccccn4)c23)c(Cl)c1 [Example 329, [5-(2,4-Dichloro-phenyl)-thieno[2,3-d]pyrimidin-4-yl]-pyridin-2-ylmethyl-amine]"
83,–,"COC(=O)c1ccc(-c2csc3ncnc(NCc4ccccn4)c23)cc1 [Example 327, 4-{4-[(Pyridin-2-ylmethyl)-amino]-thieno[2,3-d]pyrimidin-5-yl}-benzoic acid methyl ester]"
83,–,"COc1ccc(-c2csc3ncnc(NCc4ccccn4)c23)cn1 [Example 328, [5-(6-Methoxy-pyridin-3-yl)-thieno[2,3-d]pyrimidin-4-yl]-pyridin-2-ylmethyl-amine]"
79,–,"FC(F)(F)c1cc(-c2csc3ncnc(NCc4ccccn4)c23)ccc1Cl [Example 330, [5-(4-Chloro-3-trifluoromethyl-phenyl)-thieno[2,3-d]pyrimidin-4-yl]-pyridin-2-ylmethyl-amine]"
58,–,"CNCc1nc(NCc2ccccn2)c2c(-c3ccccc3)csc2n1 [Example 304, (2-Methylaminomethyl-5-phenyl-thieno[2,3-d]pyrimidin-4-yl)-pyridin-2-ylmethyl-amine]"
–,97.3,"c1ccc(CNc2ncnc3scc(-c4ccc5c(c4)OCO5)c23)nc1 [Example 319, (5-Benzo[1,3]dioxol-5-yl-thieno[2,3-d]pyrimidin-4-yl)-pyridin-2-ylmethyl-amine]"
98,–,"CN(C)c1ccc(-c2csc3ncnc(NCc4ccccn4)c23)cc1 [Example 315, [5-(4-Dimethylamino-phenyl)-thieno[2,3-d]pyrimidin-4-yl]-pyridin-2-ylmethyl-amine]"
94,–,"COCc1nc(NCc2ccccn2)c2c(-c3ccccc3)csc2n1 [Example 305, (2-Methoxymethyl-5-phenylthien[2,3-d]primidin-4-yl)pyridin-2-ylmethylamine]"
98,–,"Cc1ccc(-c2csc3ncnc(NCc4ccccn4)c23)cc1C [Example 316, [5-(3,4-Dimethyl-phenyl)-thieno[2,3-d]pyrimidin-4-yl]-pyridin-2-ylmethyl-amine]"
93,–,"COCOc1ccc(-c2csc3ncnc(NCc4ccccn4)c23)cc1 [Example 324, [5-(4-Methoxymethoxy-phenyl)-thieno[2,3-d]pyrimidin-4-yl]-pyridin-2-ylmethyl-amine]"
63,–,"c1ccc(-c2csc3nc(CN4CCOCC4)nc(NCc4ccccn4)c23)cc1 [Example 303, (2-Morpholin-4-ylmethyl-5-phenyl-thieno[2,3-d]pyrimidin-4-yl)-pyridin-2-ylmethyl-amine]"
98,–,"FC(F)(F)Oc1ccc(-c2csc3ncnc(NCc4ccccn4)c23)cc1 [Example 317, Pyridin-2-ylmethyl-[5-(4-trifluoromethoxy-phenyl)-thieno[2,3-d]pyrimidin-4-yl]-amine]"
98,–,"Cc1ccc(-c2csc3ncnc(NCc4ccccn4)c23)cc1 [Example 318, Pyridin-2-ylmethyl-(5-p-tolyl-thieno[2,3-d]pyrimidin-4-yl)-amine]"

# From patent publication EP1641803B1, “THIENOPYRIMIDINE DERIVATIVES AS POTASSIUM CHANNEL INHIBITORS” (Xention Limited, priority 2003, dated 2004)
